Some results are limits rather than exact numbers.

In the case of `CSc1ccc(-c2nn(CC=Cc3ccccc3)c(=O)cc2-c2ccc(Cl)cc2)cc1`, the melting point – broadly, the temperature, or range, at which the solid turns liquid – was in the range of 109 to 110 °C.

As to `Nc1cc(O)nc2c(-c3ccncc3)c(-c3ccc(F)cc3)nn12`, the melting point was over 250 °C.

Compound `CC(C)(Cc1ccccc1)C(NC(=O)c1cc(Cl)cc(Cl)c1)Nc1c(Nc2cccnc2)c(=O)c1=O` (stereo not drawn) gave a melting point of 197 to 198 °C.

In turn, `CC(C)c1ccc(NC(=O)Oc2ccc3c(c2)CCN3)cc1` registered a melting point of 166 to 170 °C.

For `CC(=O)c1cc(C(N)=O)cs1`, the melting point lay in the range of 156 to 158 °C.

On to `CC(=O)Oc1ccc(CCC2CC(=O)OC(=O)C2)cc1`, for which the melting point fell in the range of 97 to 99 °C.

Compound `C#CCN(Cc1ccc2nc(C)[nH]c(=O)c2c1)c1ccc(C(=O)NCC2CCNCC2)cc1` gave a melting point of 130 to 133 °C.

`Cc1ncc(C=CC=CC(=O)O)s1` had a melting point of 220 to 222 °C.

As for `O=C(CCc1ccccc1C(=O)O)Nc1cccc(/C=C/c2nc(C3CCC3)cs2)c1`, the melting point is 238 to 239 °C.

In turn, `Cc1cc(-c2ccc(C(F)(F)F)cc2)cc(-c2ccnc(-c3ccnc(N)c3)n2)n1` registered a melting point of 217 °C.

`NC(=S)C1(c2ccccn2)SCCCS1`: the melting point is 214 °C.

The compound `CC(=O)NC[C@H]1CN(c2ccc(N3CCC(O)(CN=[N+]=[N-])CC3)c(F)c2)C(=O)O1` had a melting point of 146 to 149 °C.

Consider `CSc1nn2c(=O)[nH]c(C)nc2c1S(=O)(=O)c1ccccc1`, for which the melting point was over 300 °C.

Take `O=C1COc2cc(Sc3ccc(O)cc3)ccc2N1`: the melting point is 156 to 157 °C.

The compound `CN(C)C(=S)Oc1ccc(C(F)(F)F)cc1C(=O)c1ccc(C#N)cc1` came in with a melting point of 142 °C.

In turn, `CNc1ccc(Oc2nc(OC)cc(OC)n2)c(C(=O)O)n1` showed a melting point of 172 to 174 °C.

With `CC1(C)CCc2c(-c3ccoc3)nc3sc4c(NCCc5c[nH]cn5)ncnc4c3c2C1`, the melting point is 265 to 267 °C.

Consider `O=[N+]([O-])c1ccc(Cl)c(C(=S)Nc2ccc(Oc3ncc(C(F)(F)F)cc3Cl)cc2)c1`, for which the melting point is 186 to 187 °C.

As for `COc1ccccc1N1CCN(CCCn2c(=O)[nH]c3c(c2=O)CCCC3)CC1`, the melting point fell in the range of 212 to 214 °C.

Turning to `CCCN1C(=O)C2(c3ccc(N)cc3)CC(c3ccc(N)cc3)(C2)C1=O`, the melting point was 149 to 150 °C.

In the case of `CCc1c(Cl)nc(OCc2ccccc2)nc1OCc1ccccc1`, the melting point lay within 53 to 54 °C.

Compound `CON=Cc1nc2c(N)nc3ccccc3c2n1CC(C)C` showed a melting point of 181 to 183 °C.

The compound `COc1cc2nc(N)nc(-c3ccc(Br)cc3)c2cc1OC` displayed a melting point of 270 to 272 °C.

`NC(=O)c1c(Cl)c(-c2ccccc2)n2c1CN(C(=O)CCC1CCCCC1)CC2`: the melting point was 181 to 182 °C.

Turning to `OCCN(CCO)CCCNc1nc2cc(Cl)c(Cl)cc2nc1-c1ccccn1`, the melting point was in the range of 88 to 90 °C.

For `CCOC=C(C=O)c1ccc(Br)cc1`, the melting point was in the range of 152 to 156 °C.

The compound `CC(C)N1CC2(COc3ccc(N)cc3OC2)OC1=O` (stereo not drawn) gave a melting point of 157 to 159 °C.

`Cc1c(NC(=O)c2c(C(=O)N3CCC3)cnn2C)ccn2nc(-c3ccccc3)nc12` had a melting point of 243 to 245 °C.

Compound `NC(=O)Cc1c(CCN(Cc2ccccc2)Cc2ccccc2)[nH]c2ccccc12` gave a melting point of 135 to 136 °C.

Take `Cc1c(SCCCSc2nc3ccccc3[nH]2)ccnc1CSc1nc2ccccc2[nH]1`: the melting point is 85 to 87 °C.

`COc1ccc(Sc2nc(C)n(Cc3cc4c(cc3Cl)OCO4)c2C(=O)O)cc1` came in with a melting point of 200 to 210 °C.

In the case of `CC(C)C1(C)C(=O)N=C2c3ccccc3C(=O)N21` (stereo not drawn), the melting point is 98 to 100 °C.

As for `CC(C)c1ccc(C(O)C(=O)O)cc1` (stereo not drawn), the melting point was in the range of 156 to 157 °C.

Regarding `CC(C)(C#N)c1cc(Cc2cccnc2)cc(C(C)(C)C#N)c1`, the melting point was in the range of 82 to 84 °C.

Compound `CCCC(=O)Cc1ccc(C(=O)Nc2ccc3cc(CN4CCN(C)CC4)cnc3c2C)cc1` had a melting point of 177 °C.

For the compound `CCOC(=O)CCN(C1(C(=O)O)CCCC1)S(=O)(=O)c1ccc(Oc2ccc(F)cc2)cc1`, the melting point fell in the range of 164 to 166 °C.

For `CCOC(=O)CCCCCOc1ccc(Nc2ccncc2)cc1`, the melting point fell in the range of 104 to 106 °C.

`O=C(N=C1CCCN1Cc1ccccc1)Nc1cccc(Cl)c1` came in with a melting point of 91 to 93 °C.

The compound `Cc1ccc(C(O)(c2ccccc2)c2ccncc2)cc1` (stereo not drawn) had a melting point of 192 to 195 °C.

`CC(=O)OCC(C(=O)OC(C)(C)C)C(=O)c1ccccc1` (stereo not drawn): the melting point fell in the range of 72 to 74 °C.

With `O=C(O)C1=Cc2cc(-c3ccccc3)ccc2CC1`, the melting point lay in the range of 208 to 209 °C.

The compound `CC(=O)NCC1CN(c2ccc(N3CCN(c4nc5ccc(F)cc5o4)CC3)c(F)c2)C(=O)O1` (stereo not drawn) registered a melting point of 233 to 234 °C.

For the compound `COc1ccc(C=Cc2ccc(CBr)cc2)c(Cl)c1`, the melting point was 99 to 100 °C.

As to `Cc1cc2c(=O)c(Cc3cccnc3)cn3c4ccc(Br)cc4c(c1)c23`, the melting point lay in the range of 202 to 204 °C.

As for `CCOC(=O)C(Cc1ccc2ccc3cccc4ccc1c2c34)(NC(C)=O)C(=O)OCC`, the melting point was in the range of 135 to 140 °C.

Turning to `COC(=O)[C@@H]1CCCN1C(=O)c1ccc(OC)c(O)c1[N+](=O)[O-]`, the melting point lay in the range of 108 to 110 °C.

Take `Cc1nc(N2CCN(CC3CC3)C2=O)sc1C(=O)NCc1ccc(F)cc1`: the melting point was in the range of 146 to 147 °C.

Compound `C/C(=C\c1cc(F)cc(F)c1)C(=O)O` had a melting point of 148 °C.

The compound `COC(=O)C1Oc2ccc(Cl)cc2C(c2ccccc2)(C(C)C)O1` (stereo not drawn) yielded a melting point of 114 to 115 °C.

As for `Cc1cc2c(s1)Nc1ccccc1N=C2N1CCN(C)[C@@H](CCc2ccccc2)C1`, the melting point was 87 to 91 °C.

For the compound `COc1cc(C=O)cc(OC)c1O[Si](C)(C)C(C)(C)C`, the melting point turned out to be 68 °C.

With `N#Cc1ccc(CN2CCc3ccc(C(=O)CCCC4CCN(Cc5ccccc5Cl)CC4)cc3CC2)cc1`, the melting point was in the range of 118 to 119 °C.

For `COc1ccc2c(=O)cc(-c3cc[nH]n3)oc2c1`, the melting point was in the range of 170 to 171 °C.

The compound `NC(=O)C1(c2cccc(Br)c2)CCOCC1` came in with a melting point of 245 to 247 °C.

In turn, `COC1OCC[C@@H]1NC(=O)[C@H](CC(C)C)NC(=O)OCc1ccccc1` (stereo partly drawn) came in with a melting point of 112 to 113 °C.

The compound `CCCNC(=O)Nc1ccc(N(C)C)cc1C(=O)NCC1CCN(C(c2ccccc2)c2ccccc2)CC1` came in with a melting point of 199 to 201 °C.

The compound `O=C(O)CCS(=O)(=O)O` had a melting point of 74.6 °C.

Compound `Cc1c(CC(=O)OCCCCO)cc(-c2ccc(S(C)(=O)=O)cc2)n1-c1ccc(F)cc1` showed a melting point of 149 to 151 °C.

As to `CC(C)C1Sc2ccccc2NC(=O)C1NC(=O)C(F)(F)F` (stereo not drawn), the melting point was 212 to 215 °C.

Consider `Cc1cc(C)c(NCCC(N)=S)cc1C`, for which the melting point was in the range of 110 to 111 °C.

`C[C@H]1C(S(=O)(=O)c2ccccc2)C=C(Sc2ccccc2)CC[C@H]1O[Si](C)(C)C` (stereo partly drawn): the melting point lay in the range of 114 to 116 °C.

For `Cc1nc2ccccn2c(=O)c1CCN1CCC(=C(c2ccc(F)cc2)c2ccc(F)cc2)CC1`, the melting point is 109 °C.

`O=C(O)c1cn(C2COC2)c2c(F)c(F)c(F)c(O)c2c1=O` returned a melting point of 242 to 244 °C.

Compound `O=S1(=O)N(CCCN2CC=C(c3ccccc3)CC2)c2cccc3cccc(c23)N1CCCN1CC=C(c2ccccc2)CC1` registered a melting point of 140 °C.

Turning to `CCc1noc(C)c1-c1[nH]c2ccccc2c1C(O)CN(C)C` (stereo not drawn), the melting point fell in the range of 178 to 180 °C.

In the case of `O=C(CCCCCNC(=O)OCc1ccccc1)NCCc1ccc(O)cc1`, the melting point is 108 °C.

`CC(=O)Nc1cnn2c1-c1ccccc1NC2(C)C` came in with a melting point of 228 to 230 °C.

In turn, `O=C(O)c1ccc(NCCCOc2ccc(Cl)cc2)cc1` displayed a melting point of 180 to 181 °C.

For the compound `Nc1cnnc(Cl)c1Cl`, the melting point is 150 to 151 °C.

`CC(=O)Nc1nc2ccc(S(=O)(=O)n3c(CCCC(=O)O)cc4nc(Cl)ccc43)cc2s1` came in with a melting point of 270 °C.

As to `O=C1N(Cc2ccccn2)c2cccc(-c3ccc(Oc4ccccc4)cc3)c2C12COc1cc3c(cc12)OCCO3` (stereo not drawn), the melting point fell in the range of 196 to 199 °C.

The compound `O=C(NCC1CCN(C(c2ccccc2)c2ccccc2)CC1)c1cc(F)ccc1[N+](=O)[O-]` had a melting point of 164 to 166 °C.

For the compound `COc1cc(CO)c(CO)cc1OCCCl`, the melting point is 93 to 94 °C.

On to `NCc1nc(-c2ncn3c2[C@@H]2CCN2C(=O)c2c(Cl)cccc2-3)no1`, for which the melting point fell in the range of 212 to 214 °C.

Consider `COc1ccc(NC(=O)O[C@H]2COC(c3ccccc3)=N[C@@H]2c2ccccc2)cc1` (racemic), for which the melting point is 140 °C.

For `CC(C)(C)c1ccc2c(Cl)c3ccccc3c(C=O)c2c1`, the melting point lay within 126 to 129 °C.

For the compound `CCOc1c(C)cc([N+](=O)[O-])cc1C`, the melting point was found to be 56 °C.

The compound `CCOC(=O)C(C)c1ccc2c(c1)C(=O)c1ccccc1CS2` (stereo not drawn) had a melting point of 91 to 93 °C.

With `O=C1CCN(CCCn2c(=O)[nH]c3ccccc32)CC1`, the melting point lay in the range of 134 to 136 °C.

For the compound `COCCOc1ccnc2c(NC(=O)c3c(Cl)cccc3Cl)cccc12`, the melting point lay within 150 to 152 °C.

For the compound `COc1ccc(N2Cc3cnc(Nc4ccccc4)nc3N(C[C@@H](C)O)C2=O)cc1`, the melting point fell in the range of 189 to 193 °C.

In turn, `C=CCc1cc(C(C)=O)c(O)cc1OCCCCC` came in with a melting point of 54 °C.

As to `CSC1CC(=O)N1CC(=O)NCc1ccccc1` (stereo not drawn), the melting point was 84 to 87 °C.

As to `Cc1cc2nc3c(nc2cc1[N+](=O)[O-])SC(=C(C#N)C#N)S3`, the melting point was in the range of 283 to 284 °C.

Compound `O=[N+]([O-])c1ccc(N2CCN(Cc3ccccc3)CC2)nc1CS(=O)(=O)c1ccccc1` registered a melting point of 175 to 176 °C.

On to `O=C(NC(Cc1ccccc1)C(=O)O)OCc1ccc(C#Cc2ccccc2)cc1` (stereo not drawn), for which the melting point is 172 to 173 °C.

The compound `COc1cc(COc2cc(Cn3cncn3)n(-c3ccccc3)n2)ccc1OCc1nc(-c2ccco2)oc1C` gave a melting point of 95 to 96 °C.

Consider `CN(C(=O)N(C)c1ccc(C(=O)O)cc1)c1ccc(C(=O)O)cc1`, for which the melting point was 291 to 292 °C.

Source of the values: a melting point compilation (Tetko et al.; mined from patent text by program, amines drawn as free bases though some values may be those of a salt).
